Patent publication US8445636B2, “Antimicrobial and anticancer lipopeptides” (Yeda Research & Development Co. Ltd., priority 2003, dated 2013)
Converted amounts (≈) assume the structure as drawn. Like-named read-outs stand apart in the source and are kept apart here. Non-standard residues stand in square brackets, D forms with d. Residues, ends and D or L forms follow the SMILES beside them. *: point of attachment. Palmitoyl = CCCCCCCCCCCCCCCC(=O)*; Lauroyl = CCCCCCCCCCCC(=O)*

Key:
Type in all cases: cell-based
[1] = tested on: E. coli D21
[2] = tested on: Acinetobacter baumannii ATCC 19606
Experimental: (§1) The antibacterial activity of the lipopeptides was examined in sterile 96-well plates (Nunc F96 microtiter plates) in a final volume of 100 μl as follows: Aliquots (50 μl) of a suspension containing bacteria at concentration of 1×10^6 Colony-Forming Units (CFU)/ml in culture LB (Lauria broth) medium (pH 7.4 or pH 5.5) were added to 50 μl of water containing the lipopeptide in serial 2-fold dilutions in water. Adjustment of the pH was done by diluted solutions of HCl and NaOH Inhibition of growth was determined by measuring the absorbance at 600 nm with a Microplate autoreader E1309 (Bio-Tek Instruments), after an incubation time of 18-20 h at 37° C. Antibacterial activities were expressed as the minimal inhibitory concentration (MIC), the concentration at which 100% inhibition of growth was observed after 18-20 h of incubation. The bacteria used were: Escherichia coli ATCC 25922, Acinetobacter baumannii ATCC 19606, Pseudomonas aeruginosa ATCC 27853, Staphylococcus aureus ATCC 6538P, Enterococcus faecalis ATCC 29212, Enterobacter cloacae ATCC 49141. The antibacterial activity of lipopeptides was also examined against resistant bacteria: methicilin-resistant Staphylococcus aureus (MRSA) ATCC 700698 and vancomycin-resistant Enterococcus faecium (VRE) ATCC 700221. If not indicated otherwise, the bacterial growth was detected at pH 7.4.

[3] = tested on: Pseudomonas aeruginosa ATCC 27853
Experimental: as §1

[4] = tested on: Staphylococcus aureus ATCC 6538P
Experimental: as §1

[5] = tested on: Candida albicans ATCC 10231; assay: microbe, parasite or virus in culture
Experimental: (§2) The antifungal activity of the lipopeptides was examined in sterile 96-well plates (Nunc F96 microtiter plates) in a final volume of 200 μL as follows: 100 µl of a suspension containing fungi at a concentration of 1×10^4 Colony-Forming Units (CFU)/ml in culture medium (RPMI 1640, 0.165 M MOPS with L-glutamine, without NaHCO3) at pH 7.4 or pH 5.5 (adjustment of the pH was done by diluted solutions of HCl and NaOH) were added to 100 μl of water containing the peptide in serial 2-fold dilutions in water. The fungi were incubated in the presence of the lipopeptides for 24-48 h at 35° C. in a Binder KB115 incubator under agitation. Growth inhibition was determined by measuring the absorbance at 620 nm with a Microplate autoreader E1309 (Bio-Tek Instruments). Antifungal activity is expressed as the minimal inhibitory concentration (MIC), the concentration at which 100% inhibition of fungi growth was observed after the incubation time mentioned above. The fungi used were: Aspergillus niger ATCC 9642, Candida albicans ATCC 10231 and Cryptococcus neoformans ATCC 66031. If not indicated otherwise, the fungi growth was detected at pH 7.4.

[6] = tested on: Cryptococcus neoformans ATCC MYA-422; assay: microbe, parasite or virus in culture; conditions: ATCC MYA-422, pH 7.4; read-out: Minimal Inhibitory Concentration, Cyrptococcus neoformans (ATCC MYA-422)
[7] = tested on: Aspergillus fumigatus ATCC 26430; assay: microbe, parasite or virus in culture
[8] = tested on: Escherichia coli ATCC 25922
Experimental: as §1

[9] = tested on: Cryptococcus neoformans ATCC 66031; assay: microbe, parasite or virus in culture
Experimental: as §2

[10] = ATCC 10231, pH 7.4, read-out: Minimal Inhibitory Concentration, Candida Albicans (ATCC 10231)
[11] = ATCC 26430, pH 7.4, read-out: Minimal Inhibitory Concentration, Aspergillus Fomigatus (ATCC 26430)

For `CCCCCCCCCCCCCCCC(=O)N[C@@H](CCCCN)C(=O)N[C@H](CCCCN)C(=O)N[C@@H](CCC(=O)O)C(=O)N[C@@H](CCCCN)C(N)=O` [PA-KKEK, Palmitoyl-Lys-D-Lys-Glu-Lys-NH2] (Palmitoyl-K[dK]EK-NH2), the “Minimal Inhibitory Concentration, E. coli-D21” value ([1]; D21, pH 7.4) was 25 µM, the “Minimal Inhibitory Concentration, A. baumannii ATCC 19606” value ([2]; ATCC 19606, pH 7.4) was 100 µM and the “Minimal Inhibitory Concentration, P. aeruginosa ATCC 27853” value ([3]; ATCC 27853, pH 7.4) was 100 µM. The “Minimal Inhibitory Concentration, S. aureus ATCC 6538P” value ([4]; ATCC 6538, pH 7.4) was 25 µM, the MIC [5, 10] was 50 µM (≈ 38.5 µg/mL) and the MIC [6] was 12.5 µM (≈ 9.61 µg/mL). For the same compound, the MIC [7, 11] was 50 µM (≈ 38.5 µg/mL).
`CCCCCCCCCCCCCCCC(=O)N[C@@H](CCC(=O)O)C(=O)N[C@H](CCCCN)C(=O)N[C@@H](CCCCN)C(N)=O` [PA-EKK, Palmitoyl-Glu-D-Lys-Lys-NH2] (Palmitoyl-Glu-[dK]-Lys-NH2) was tested, and the “Minimal Inhibitory Concentration, E. coli-D21” value ([1]; D21, pH 7.4) was 100 µM, the “Minimal Inhibitory Concentration, A. baumannii ATCC 19606” value ([2]; ATCC 19606, pH 7.4) was greater than 100 µM and the “Minimal Inhibitory Concentration, P. aeruginosa ATCC 27853” value ([3]; ATCC 27853, pH 7.4) was greater than 100 µM. For the same compound, the “Minimal Inhibitory Concentration, S. aureus ATCC 6538P” value ([4]; ATCC 6538, pH 7.4) was 25 µM, the MIC [5, 10] was 25 µM (≈ 16 µg/mL) and the MIC [6] was 12.5 µM (≈ 8.01 µg/mL). It also gave an MIC [7, 11] of 25 µM (≈ 16 µg/mL).
`CCCCCCCCCCCCCCCC(=O)N[C@@H](CCCNC(=N)N)C(=O)N[C@@H](CC(C)C)C(=O)N[C@H](CC(C)C)C(=O)N[C@@H](CCCNC(=N)N)C(N)=O` [PA-RLLR, Palmitoyl-Arg-Leu-D-Leu-Arg-NH2] (Palmitoyl-RL[dL]R-NH2) was tested, and the “Minimal Inhibitory Concentration, E. coli-D21” value ([1]; D21, pH 7.4) was greater than 100 µM, the “Minimal Inhibitory Concentration, A. baumannii ATCC 19606” value ([2]; ATCC 19606, pH 7.4) was greater than 100 µM and the “Minimal Inhibitory Concentration, P. aeruginosa ATCC 27853” value ([3]; ATCC 27853, pH 7.4) was greater than 100 µM. The “Minimal Inhibitory Concentration, S. aureus ATCC 6538P” value ([4]; ATCC 6538, pH 7.4) was 25 µM, the MIC [5, 10] was 25 µM (≈ 19.9 µg/mL) and the MIC [6] was 1.56 µM (≈ 1.24 µg/mL). It also gave an MIC [7, 11] of 6.25 µM (≈ 4.96 µg/mL).
`CCCCCCCCCCCC(=O)N[C@H](CC(C)C)C(=O)N[C@@H](CCCCN)C(=O)N[C@@H](Cc1c[nH]cn1)C(=O)N[C@H](CC(C)C)C(=O)N[C@H](CC(C)C)C(=O)N[C@@H](CCCCN)C(=O)N[C@@H](Cc1c[nH]cn1)C(=O)N[C@H](CC(C)C)C(=O)N[C@H](CC(C)C)C(=O)N[C@@H](CCCCN)C(=O)N[C@@H](Cc1c[nH]cn1)C(=O)N[C@H](CC(C)C)C(N)=O` [lipopeptide 28, (CH3-(CH2)10-CO-)-D-Leu-Lys-His-D-Leu-D-Leu-Lys-His-D-Leu-D-Leu-Lys-His-D-Leu-NH2] (Lauroyl-[dL]KH[dL][dL]KH[dL][dL]KH[dL]-NH2) was tested, and the “Minimal inhibitory concentrations, E. Coli D21” value ([1]; D21, pH 5.5) was greater than 100 µM, the “Minimal inhibitory concentrations, E. Coli D21” value ([1]; D21, pH 7.4) was 50 µM (≈ 83.7 µg/mL) and the “Minimal inhibitory concentrations, A. baumannii ATCC 19606” value ([2]; ATCC 19606, pH 5.5) was greater than 100 µM. For the same compound, the “Minimal inhibitory concentrations, A. baumannii ATCC 19606” value ([2]; ATCC 19606, pH 7.4) was 50 µM (≈ 83.7 µg/mL), the “Minimal inhibitory concentrations, E. Coli ATCC 25922” value ([8]; ATCC 25922, pH 5.5) was greater than 100 µM and the “Minimal inhibitory concentrations, E. Coli ATCC 25922” value ([8]; ATCC 25922, pH 7.4) was 100 µM (≈ 167 µg/mL). The “Minimal inhibitory concentrations, P. Aeruginosa ATCC 27853” value ([3]; ATCC 27853, pH 5.5) was greater than 100 µM, the “Minimal inhibitory concentrations, P. Aeruginosa ATCC 27853” value ([3]; ATCC 27853, pH 7.4) was 50 µM (≈ 83.7 µg/mL) and the “Minimal inhibitory concentrations, S. aureus II ATCC 6538P” value ([4]; ATCC 6538, pH 5.5) was greater than 100 µM. For the same compound, the “Minimal inhibitory concentrations, S. aureus II ATCC 6538P” value ([4]; ATCC 6538, pH 7.4) was 18.75 µM (≈ 31.4 µg/mL), the MIC ([5]; ATCC 10231, pH 5.5, read-out: Minimal inhibitory concentrations, C. Albicans With serum) was greater than 100 µM and the MIC ([5]; ATCC 10231, pH 5.5, read-out: Minimal inhibitory concentrations, C. Albicans Without serum) was 12.5 µM (≈ 20.9 µg/mL). The MIC ([5]; ATCC 10231, pH 7.4, read-out: Minimal inhibitory concentrations, C. Albicans With serum) was greater than 100 µM, the MIC ([5]; ATCC 10231, pH 7.4, read-out: Minimal inhibitory concentrations, C. Albicans Without serum) was 12.5 µM (≈ 20.9 µg/mL) and the MIC ([9]; ATCC 66031, pH 5.5, read-out: Minimal inhibitory concentrations, C. Neofor. With serum) was 12.5 µM (≈ 20.9 µg/mL). For the same compound, the MIC ([9]; ATCC 66031, pH 5.5, read-out: Minimal inhibitory concentrations, C. Neofor. Without serum) was less than 0.78 µM, the MIC ([9]; ATCC 66031, pH 7.4, read-out: Minimal inhibitory concentrations, C. Neofor. With serum) was 6.25 µM (≈ 10.5 µg/mL) and the MIC ([9]; ATCC 66031, pH 7.4, read-out: Minimal inhibitory concentrations, C. Neofor. Without serum) was 1.56 µM (≈ 2.61 µg/mL). For the same compound, the MIC ([7]; ATCC 26430, pH 5.5, read-out: Minimal inhibitory concentrations, A. Fumig. With serum) was 100 µM (≈ 167 µg/mL), the MIC ([7]; ATCC 26430, pH 5.5, read-out: Minimal inhibitory concentrations, A. Fumig. Without serum) was 12.5 µM (≈ 20.9 µg/mL) and the MIC ([7]; ATCC 26430, pH 7.4, read-out: Minimal inhibitory concentrations, A. Fumig. With serum) was 100 µM (≈ 167 µg/mL). For the same compound, the MIC ([7]; ATCC 26430, pH 7.4, read-out: Minimal inhibitory concentrations, A. Fumig. Without serum) was 25 µM (≈ 41.9 µg/mL).
For `CCCCCCCCCCCCCCCC(=O)N[C@@H](CCCCN)C(=O)N[C@@H](CCCCN)C(=O)N[C@@H](CCCCN)C(=O)N[C@@H](CCCCN)C(N)=O` [PA-KKKK] (Palmitoyl-KKKK-NH2), the “Minimal Inhibitory Concentration, E. coli-D21” value ([1]; D21, pH 7.4) was 12.5 µM, the “Minimal Inhibitory Concentration, P. aeruginosa ATCC 27853” value ([3]; ATCC 27853, pH 7.4) was 3.12 µM and the “Minimal Inhibitory Concentration, S. aureus ATCC 6538P” value ([4]; ATCC 6538, pH 7.4) was 25 µM. The MIC [5, 10] was 25 µM (≈ 19.2 µg/mL), the MIC [6] was 1.56 µM (≈ 1.2 µg/mL) and the MIC [7, 11] was 12.5 µM (≈ 9.6 µg/mL).
